Patent US6569404B1, “Phase shift colloids as ultrasound contrast agents” (priority 1993, dated 2003)
Where “and” joins values, the source holds several entries; their conditions need not be identical. Identical values can stand only once. Like-named read-outs stand apart in the source and are kept apart here.

What was measured:
[1] = cited from earlier work; for B.P.: chemicals of Example 52
[2] = Acoustic backscatter: gray scale intensity (videodensity) in water beaker at 37° C., Hewlett Packard 77020 scanner, 5.0 MHz
Method: Two solutions were prepared to simulate the administration to an organism of either a colloidal dispersion of a low boiling liquid or the liquid, neat.
The emulsions contained Fluorad 170 C as surfactant and were formed by applying acoustic energy from a waterbath sonicator.

[3] = 760 mm Hg and 15° C.; Gas Data Book; cited from earlier work
[4] = Expected change in dispersion size from liquid and gas densities; conditions: calculated from cubic root of volume
Method: One can also calculate the expected change in dispersion size if one knows the relative densities of the dispersed liquid as a gas and liquid. For example, the Gas Data Book, by W Braker and A Mossman, Matheson, contains such data. Examining octafluorocyclobutane, one finds that 1 L of the liquid yields 188 L of gas at a pressure of 760 mm Hg and 15° C. Since the volume of a sphere is related to the diameter of a sphere by the cubic root of the volume, the phase transition for an octafluorobutane emulsion particle will cause a 5.7-fold increase in diameter.

dogs = conditions: Ziskin et al. 1972, cited from earlier work
[5] = In vitro ultrasound backscatter / echogenicity of formulations (qualitative); conditions: in words
[6] = Emulsion stability versus relative HLB of Pluronic L61/F68 mixtures; format: physicochemical; conditions: from stability of emulsions
Source text: The relative hydrophilic-lipophilic balance (HLB) is a method of optimizing a nonionic surfactant solution to achieve greatest stability. It is described in detail in Emulsions: Theory and Practice, Paul Becher, 1965, Robert E. Krieger Publishing Company Malabar, Fla., and references contained therein, and is incorporated here by reference. Solutions of Pluronic L61 (HLB 3.0) and F68 (HLB 29) were mixed to achieve intermediate HLB values by the following formula:
HLB=fL61 {HLB of L61}+ff68 {HLB of F68} The actual solutions, the calculated HLB values, and the stability of the final formulation (a 2% v/v emulsion of dodecafluorohexane) are contained in the following table: […]

[7] = Backscatter persistence and intensity of 2% mixtures in saline, 1000 mL water at 37° C., Hewlett-Packard 77020A; conditions: for Ratio of Persistence: 2% in saline, saline+air set as 1; for Ratio of Intensity: backscatter intensity qualitatively ranked from 0 to 5
Method: The following emulsions were formulated and tested according to methods described in Example 18.
All solutions were made as a 2% solution in saline. A volume of 0.1 cc of each chemical was comminuted with 5 cc saline through a 3-way stopcock for 25 passes. A volume of 1.0 mL of the mixture was immediately injected through a 1.2 μm filter into a stirring water bath containing 1000 mL water at 37° C. The resulting backscatter was then recorded with the use of a Hewlett-Packard 77020A Ultrasound System at […].

[8] = at 25° C.; cited from earlier work
[9] = Interfacial tension against dodecafluoropentane at 4° C., Kruss Drop Volume Tensiometer DVT-10; format: physicochemical; conditions: from graph of IFT versus HLB
Method: Mixtures of Pluronic P-123 and Pluronic F-127 were formed, yielding a 1% solution, v/v, with graded HLB numbers and the interfacial tension (IFT) of the solutions against dodecafluoropentane determined at 4° C., using a Kruss Drop Volume Tensiometer DVT-10, Kruss USA, Charlotte, N.C. The results are contained in the following table:
Interfacial tensions of various amphiphilic materials in aqueous solutions (all expressed as v/v solutions) against dodecafluoropentane were measured at 4° C. and emulsions created from each formulation, as described in Example 13.

[10] = emulsion with Fluorad 170 C, 0.2 mL in 1000 mL water at 37° C., six seconds, backgrounds 2.9, 3.0, 3.6
[11] = Chemical List of low boiling liquids, Example 45
[12] = dispersed phase of emulsions of Example 18
[13] = 1.0 mL in 1000 mL water at 37° C.
[14] = boiling point under standard pressure conditions, chemical list arranged by total atoms

In the case of FC1(F)C(F)(F)C(F)(F)C(F)(F)C1(F)F [perfluorocyclopentane], the Boiling Point [1] is listed as 22.5 °C and 22 °C and the grayscale intensity [2, 10] is listed as 158.9 units.
In the case of FC1(F)C(F)(F)C(F)(F)C1(F)F [octafluorocyclobutane], the “volume of gas from 1 L of the liquid” value [3] is listed as 188 L and the “increase in diameter of emulsion particle on phase transition” value [4] is listed as 5.7 fold.
For CCOCC [ether, diethyl ether], the “Boiling Point” value [1, 11] is listed as 34.5 degrees Celcius, the lethality (dogs; injections of 20 mL) is listed as “proved fatal” and the “contrast effect (Doppler signal)” value (dogs; intraarterial) is listed as “greatest contrast effect of any agent that we tried”. The “in vitro ultrasound backscatter characteristics” value [5] was “useful contrast signal”.
For FC(F)(F)C(F)(F)C(F)(F)C(F)(F)C(F)(F)C(F)(F)F [Perfluorohexane, reference compound], the “Boiling Point” value [1, 12] is given as 59 °C and the “relative HLB established” value [6] is given as 6-8.
In the case of FC(F)(F)C(Cl)Br (centres unmarked) [Halothane], the B.P. [1] is listed as 50 °C, the “Ratio of Persistence” value [7, 13] is listed as 6 and the “Ratio of Intensity” value [7] is listed as 0.25.
For CCCCCCCCC [Nonane], the B.P. [1] is given as 151 °C, the “Ratio of Persistence” value [7, 13] is given as 9 and the “Ratio of Intensity” value [7] is given as 0.5.
For ClCCCl [1,2, Dichloroethane, reference compound], the B.P. [1] is listed as 83 °C, the “Ratio of Persistence” value [7, 13] is listed as 6 and the “Ratio of Intensity” value [7] is listed as 0.25. The “Vapor Pressure” value [8] was 87 mmHg at 25 °C.
For FC(F)(F)C(F)(F)C(F)(F)C(F)(F)C(F)(F)C(F)(F)C(F)(F)C(F)(F)I [1-Iodoperfluorooctane, reference compound], the “Boiling Point” value [1, 12] is listed as 160 °C.
For C=CC(=C)C [Isoprene], the “Boiling Point” value [1, 11] is given as 34.0 degrees Celcius.
For [N]=O [Nitric oxide], the “Boiling Point” value [1, 11] is listed as −151.6 degrees Celcius.
For FC(F)(F)SSC(F)(F)F [Dimethyl disulfide, hexafluoro], the “Boiling Point” value [1, 11] is given as 34.6 degrees Celcius.
For CC1CC1 [methyl-cyclopropane], the “Boiling Point” value [1, 14] is listed as 0.7 degrees Celcius.
In the case of FC1(F)C(F)(F)C(F)(F)C2(F)C(F)(F)C(F)(F)C(F)(F)C(F)(F)C2(F)C1(F)F (centres unmarked) [Perfluorodecalin], the B.P. [1] is given as 141 °C, the “Ratio of Persistence” value [7, 13] is given as 9 and the “Ratio of Intensity” value [7] is given as 2.0.
For O=[N+]([O-])C(F)(F)C(F)(F)C(F)(F)F [Propane, heptafluoro-1-nitro], the “Boiling Point” value [1, 11] is given as 25.0 degrees Celcius.
For ClCCl [Methane, dichloro], the “Boiling Point” value [1, 11] is listed as 40.0 degrees Celcius.
In the case of FC(F)(F)C(F)(F)C(F)(C(F)(F)F)C(F)(F)F [nonafluoro-2-trifluoromethyl-butane], the “Boiling Point” value [1, 14] is listed as 30.12 degrees Celcius.
For O=C=O [Carbon dioxide], the “Boiling Point” value [1, 11] is listed as −78.6 degrees Celcius.
For O=C(O)c1c(Cl)c(Cl)c(Cl)c(Cl)c1C(=O)O [Phthalic acid, tetrachloro], the “Boiling Point” value [1, 11] is given as 2.0 degrees Celcius.
For FCBr [Methane, bromo fluoro], the “Boiling Point” value [1, 11] is given as 19.0 degrees Celcius.
In the case of C=COCC [ethyl-vinyl ether], the “Boiling Point” value [1, 14] is listed as 35 degrees Celcius.
In the case of CCC(F)(F)F [1,1,1-trifluoro propane], the “Boiling Point” value [1, 14] is given as −13 degrees Celcius.
In the case of FC(F)(F)I [Methane, iodo-trifluoro], the “Boiling Point” value [1, 11] is listed as −22.5 degrees Celcius.
For NC=O [formamide], the “Boiling Point” value [1, 14] is listed as 2.18 degrees Celcius.
For C=CCC [Example 1-Butene, 1-Butene], the “Boiling Point” value [1, 11] is given as −6.3 degrees Celcius.
For COC [Methyl ether], the “Boiling Point” value [1, 11] is given as −25.0 degrees Celcius.
For CC(C)N [isopropylamine], the “Boiling Point” value [1, 14] is listed as 31.7 degrees Celcius.
For O=NC(F)(F)Br [Methane, bromo difluoro nitroso], the “Boiling Point” value [1, 11] is given as −12.0 degrees Celcius.
For N#CC(F)(F)F [Trifluoroacetonitrile], the “Boiling Point” value [1, 11] is given as −64.0 degrees Celcius.
For CN=NC [Azomethane], the “Boiling Point” value [1, 11] is given as 1.5 degrees Celcius.
In the case of FC1=C(F)C(F)(F)C1(F)F [Cyclobutene, perfluoro], the “Boiling Point” value [1, 11] is given as 3.0 degrees Celcius.
For C#CCCC#CC [1,5-Heptadiyne], the “Boiling Point” value [1, 11] is listed as 26.0 degrees Celcius.
In the case of FC(F)(F)C(F)(F)C(F)(F)C(F)(F)C(F)(F)F [dodecafluoropentane], the “Boiling Point” value [1, 11] is listed as 30.5 degrees Celcius, the B.P. [1] is listed as 29 °C and the Boiling Point [1] is listed as 28-29 °C. The “Boiling Point” value [1, 12] was 29 °C, the grayscale intensity [2, 10] was 58.5 units and the grayscale intensity ([2]; fifty-two seconds post-injection into 1000 mL water at 37° C., gray scale of 2 to 254) was 5.0. For the same compound, the grayscale intensity ([2]; five seconds post-injection into 1000 mL water at 37° C., gray scale of 2 to 254, 0.1 mL emulsion (before 4.27) or 0.2 mL neat liquid (before 4.9)) was 7.7, the “time over which backscatter diminished” value [7, 13] was 4 to 5 min and the “Ratio of Persistence” value [7, 13] was 24. For the same compound, the “Ratio of Intensity” value [7] was 5, the “Ratio of Intensity” value ([7]; listed as Dodecafluoropentane) was 5.0 and the “Vapor Pressure” value [8] was 646 mmHg at 25 °C. The “HLB for the dispersed phase liquid” value [9] was “about 14”.
In the case of C#CCC [Example 1-Butyne, 1-Butyne], the “Boiling Point” value [1, 11] is listed as 8.1 degrees Celcius.
In the case of CCCCB(F)F [butyl-difluoro-borane], the “Boiling Point” value [1, 14] is given as 35 degrees Celcius.
In the case of C=C(C)C [Isobutylene], the “Boiling Point” value [1, 11] is given as −6.9 degrees Celcius.
In the case of O=C(C(F)(F)F)C(F)(F)F [Acetone, hexafluoro], the “Boiling Point” value [1, 11] is listed as −28.0 degrees Celcius.
In the case of [Ar] [Argon], the “Boiling Point” value [1, 11] is given as −189.4 degrees Celcius.
In the case of O=C=C=C=O [Carbon suboxide], the “Boiling Point” value [1, 11] is given as 6.8 degrees Celcius.
In the case of FC(=C(F)C(F)(F)F)C(F)(F)F [2-Butene, perfluoro], the “Boiling Point” value [1, 11] is given as 0.0 degrees Celcius.
In the case of FC(F)(Cl)Cl [Methane, dichloro difluoro], the “Boiling Point” value [1, 11] is given as −29.8 degrees Celcius.
For FC(F)Cl [Methane, chloro-difluoro], the “Boiling Point” value [1, 11] is given as −40.8 degrees Celcius.
